Among the data in patent US12252484B2, “Pyrazolopyridine compounds for the treatment of autoimmune disease” (Hoffmann-La Roche Inc., priority 2018, dated 2025) are IC50 values, retold here.

A value given as a limit tells only on which side of the number the result lay.

Usually IC50 stands for the midpoint of a concentration-inhibition curve.

The test concerns the target T1, human TLR9 (Homo sapiens, UniProt Q9NR96).
T1 sequence (Q9NR96 26-1032): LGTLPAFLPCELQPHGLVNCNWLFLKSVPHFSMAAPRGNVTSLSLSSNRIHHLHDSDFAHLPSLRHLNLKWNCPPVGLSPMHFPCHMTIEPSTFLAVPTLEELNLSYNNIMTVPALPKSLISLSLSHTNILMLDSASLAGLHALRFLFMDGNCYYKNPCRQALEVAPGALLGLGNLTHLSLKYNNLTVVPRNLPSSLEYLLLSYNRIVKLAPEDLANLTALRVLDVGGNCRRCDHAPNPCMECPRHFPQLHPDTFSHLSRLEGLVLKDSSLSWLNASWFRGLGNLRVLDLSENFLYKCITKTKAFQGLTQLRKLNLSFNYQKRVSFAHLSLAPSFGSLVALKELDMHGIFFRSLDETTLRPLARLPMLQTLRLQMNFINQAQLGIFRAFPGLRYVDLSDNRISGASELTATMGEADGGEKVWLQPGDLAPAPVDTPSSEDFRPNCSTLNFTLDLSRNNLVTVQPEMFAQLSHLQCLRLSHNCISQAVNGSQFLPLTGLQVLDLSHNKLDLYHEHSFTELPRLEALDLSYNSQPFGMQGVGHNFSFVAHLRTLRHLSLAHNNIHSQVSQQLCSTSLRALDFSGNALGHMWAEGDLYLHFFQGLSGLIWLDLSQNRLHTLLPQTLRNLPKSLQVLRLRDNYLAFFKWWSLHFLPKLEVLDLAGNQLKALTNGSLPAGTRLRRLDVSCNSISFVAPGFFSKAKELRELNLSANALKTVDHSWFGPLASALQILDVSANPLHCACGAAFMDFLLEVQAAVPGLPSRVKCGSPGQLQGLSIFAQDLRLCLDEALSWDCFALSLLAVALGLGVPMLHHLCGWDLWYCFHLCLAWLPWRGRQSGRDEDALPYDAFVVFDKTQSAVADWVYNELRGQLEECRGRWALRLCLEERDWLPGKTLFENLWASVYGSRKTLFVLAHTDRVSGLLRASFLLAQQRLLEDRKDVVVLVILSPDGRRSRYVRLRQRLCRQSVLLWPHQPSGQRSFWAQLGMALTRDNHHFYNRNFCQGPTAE
Put plainly: HEK293-Blue-hTLR-9 cells assay (SEAP reporter, ODN2006 stimulation). The class given is cell-based. The settings on record: HEK293-Blue-hTLR-9 cells, ODN2006 ligand, 20 hrs incubation; read-out: TLR9 IC50. The procedure: The following tests were carried out in order to determine the activity of the compounds of formula (I) in HEK293-Blue-hTLR-7/8/9 cells assay.
HEK293-Blue-hTLR-9 Cells Assay:
A stable HEK293-Blue-hTLR-9 cell line was purchased from InvivoGen (Cat. #: hkb-htlr9, San Diego, California, USA). These cells were originally designed for studying the stimulation of human TLR9 by monitoring the activation of NF-κB. A SEAP (secreted embryonic alkaline phosphatase) reporter gene was placed under the control of the IFN-β minimal promoter fused to five NF-κB and AP-1-binding sites. The SEAP was induced by activating NF-κB and AP-1 via stimulating HEK-Blue hTLR9 cells with TLR9 ligands. Therefore the reporter expression was declined by TLR9 antagonist under the stimulation of a ligand, such as ODN2006 (Cat. #: tlrl-2006-1, Invivogen, San Diego, California, USA), for incubation of 20 hrs. The cell culture supernatant SEAP reporter activity was determined using QUANTI-Blue™ kit (Cat. #: rep-qb1, Invivogen, San Diego, California, USA) at a wavelength of 640 nm, a detection medium that turns purple or blue in the presence of alkaline phosphatase.
HEK293-Blue-hTLR9 cells were incubated at a density of 250,000˜450,000 cells/mL in a volume of 170 μL in a 96-well plate in Dulbecco's Modified Eagle's medium (DMEM) containing 4.5 g/L glucose, 50 U/mL penicillin, […], 2 mM L-glutamine, 10% (v/v) heat-inactivated fetal bovine serum with addition of 20 μL test compound in a serial dilution in the presence of final DMSO at 1% and 10 μL of 20 uM ODN2006 in above DMEM, perform incubation under 37° C. in a CO2 incubator for 20 hrs. Then 20 μL of the supernatant from each well was incubated with 180 μL Quanti-blue substrate solution at 37° C. for 2 hrs and the absorbance was read at 620˜655 nm using a spectrophotometer. The signalling pathway that TLR9 activation leads to downstream NF-κB activation has been widely accepted, and therefore similar reporter assay was modified for evaluating TLR9 antagonist.

In the case of `C[C@@H]1CN(c2ccc(C#N)n3nccc23)C[C@H](C(=O)NC(C)(C)CO)O1` [Example 16, (2R,6R)-4-(7-cyanopyrazolo[1,5-a]pyridin-4-yl)-N-(2-hydroxy-1,1-dimethyl-ethyl)-6-methyl-morpholine-2-carboxamide], the IC50 was greater than 100 µM.
To `C[C@@H]1CN(c2ccc(C#N)n3nccc23)C[C@H](C(=O)NCC(C)(C)CN)O1` [Example 39, (2R,6R)-N-(3-amino-2,2-dimethyl-propyl)-4-(7-cyanopyrazolo[1,5-a]pyridin-4-yl)-6-methyl-morpholine-2-carboxamide] belongs 19 µM; to `C[C@@H]1CN(c2ccc(C#N)n3nccc23)C[C@H](C(=O)NC2CCN(C)CC2)O1` [Example 1, (2R,6R)-4-(7-cyanopyrazolo[1,5-a]pyridin-4-yl)-6-methyl-N-(1-methyl-4-piperidyl)morpholine-2-carboxamide], 15 µM.
To `C[C@@H]1CN(c2ccc(C#N)n3nccc23)C[C@H](C(=O)NC2CC3(CNC3)C2)O1` [Example 3, (2R,6R)-N-(2-azaspiro[3.3]heptan-6-yl)-4-(7-cyanopyrazolo[1,5-a]pyridin-4-yl)-6-methyl-morpholine-2-carboxamide] belongs 36 µM; to `CCC(O)CNC(=O)[C@H]1CN(c2ccc(C#N)n3nccc23)C[C@@H](C)O1` (stereo partly drawn) [Example 13, (2R,6R)-4-(7-cyanopyrazolo[1,5-a]pyridin-4-yl)-N-(2-hydroxybutyl)-6-methyl-morpholine-2-carboxamide], greater than 100 µM; to `C[C@@H]1CN(c2ccc(C#N)n3nccc23)C[C@H](C(=O)NCC2CN(C)CCO2)O1` (stereo partly drawn) [Example 7, (2R,6R)-4-(7-cyanopyrazolo[1,5-a]pyridin-4-yl)-6-methyl-N-[(4-methylmorpholin-2-yl)methyl]morpholine-2-carboxamide], 58 µM.
As for `C[C@@H]1CN(c2ccc(C#N)n3nccc23)C[C@H](C(=O)NC2C3CNCC2COC3)O1` (stereo partly drawn) [Example 27, (2R,6R)-4-(7-cyanopyrazolo[1,5-a]pyridin-4-yl)-6-methyl-N-(3-oxa-7-azabicyclo[3.3.1]nonan-9-yl)morpholine-2-carboxamide], the IC50 is 6.8 µM.
To `C[C@@H]1CN(c2ccc(C#N)n3ncc(F)c23)C[C@H](C(=O)NC2CCN(C)CC2)O1` [Example 47, (2R,6R)-4-(7-cyano-3-fluoro-pyrazolo[1,5-a]pyridin-4-yl)-6-methyl-N-(1-methyl-4-piperidyl)morpholine-2-carboxamide] belongs 14 µM; to `C[C@@H]1CN(c2ccc(C#N)n3nccc23)C[C@H](C(=O)NC2CCOCC2)O1` [Example 4, (2R,6R)-4-(7-cyanopyrazolo[1,5-a]pyridin-4-yl)-6-methyl-N-tetrahydropyran-4-yl-morpholine-2-carboxamide], greater than 100 µM; to `C[C@@H]1CN(c2ccc(C#N)n3nccc23)C[C@H](C(=O)NC2C3CCCC2CNC3)O1` (stereo partly drawn) [Example 37, (2R,6R)-N-(3-azabicyclo[3.3.1]nonan-9-yl)-4-(7-cyanopyrazolo[1,5-a]pyridin-4-yl)-6-methyl-morpholine-2-carboxamide], 6.8 µM.
The value for `C[C@@H]1CN(c2ccc(C#N)n3nccc23)C[C@H](C(=O)N[C@H]2CC[C@H](O)CC2)O1` [Example 21, Trans-(2R,6R)-4-(7-cyanopyrazolo[1,5-a]pyridin-4-yl)-N-(4-hydroxycyclohexyl)-6-methyl-morpholine-2-carboxamide] was greater than 100 µM.
To `C[C@H]1C[C@@H](NC(=O)[C@H](C)N)CN(c2ccc(C#N)n3nccc23)C1` [Example 44, (2S)-2-amino-N-[(3R,5S)-1-(7-cyanopyrazolo[1,5-a]pyridin-4-yl)-5-methyl-3-piperidyl]propanamide] belongs 10 µM.
Consider `C[C@@H]1CN(c2ccc(C#N)n3nccc23)C[C@H](C(=O)NCC2CNCC2(F)F)O1` (stereo partly drawn) [Example 18, (2R,6R)-4-(7-cyanopyrazolo[1,5-a]pyridin-4-yl)-N-[(4,4-difluoropyrrolidin-3-yl)methyl]-6-methyl-morpholine-2-carboxamide], for which the IC50 was greater than 100 µM.
